Data as given in publication doi:10.1101/2021.04.08.439011v1 (biorxiv, 2021).

Assays:
[1] = biological target: AKT3 (Homo sapiens, UniProt Q9Y243); conditions: 1 µM; binder
[2] = biological target: CSNK2A2 (Homo sapiens, UniProt P19784); conditions: 1 µM; binder
[3] = biological target: FLT3(D835Y) (Homo sapiens, UniProt P36888, D835Y); conditions: 1 µM; binder
[4] = biological target: DAPK2 (Homo sapiens, UniProt Q9UIK4); conditions: 1 µM; binder
[5] = biological target: ABL1(Y253F) (Homo sapiens, UniProt P00519, Y253F); conditions: phosphorylated; 1 µM; binder
[6] = biological target: PIK3CA(Q546K) (Homo sapiens, UniProt P42336, Q546K); conditions: 1 µM; binder
[7] = biological target: DMPK (Homo sapiens, UniProt Q09013); conditions: 1 µM; binder
[8] = biological target: PRKCD (Homo sapiens, UniProt Q05655); conditions: 1 µM; binder
[9] = biological target: MARK4 (Homo sapiens, UniProt Q96L34); conditions: 1 µM; binder
[10] = biological target: PKN1 (Homo sapiens, UniProt Q16512); conditions: 1 µM; binder
[11] = biological target: PIK3CA(E542K) (Homo sapiens, UniProt P42336, E542K); conditions: 1 µM; binder
[12] = biological target: HCK (Homo sapiens, UniProt P08631); conditions: 1 µM; binder
[13] = biological target: MELK (Homo sapiens, UniProt Q14680); conditions: 1 µM; binder
[14] = biological target: DYRK1A (Homo sapiens, UniProt Q13627); conditions: 1 µM; binder
[15] = biological target: MRCKA (Homo sapiens, UniProt Q5VT25); conditions: 1 µM; binder
[16] = biological target: ICK (Homo sapiens, UniProt Q9UPZ9); conditions: 1 µM; binder
[17] = biological target: OSR1 (Homo sapiens, UniProt O95747); conditions: 1 µM; binder
[18] = biological target: PIP5K1C (Homo sapiens, UniProt O60331); conditions: 1 µM; binder
[19] = biological target: AURKA (Homo sapiens, UniProt O14965); conditions: 1 µM; binder
[20] = biological target: MYLK (Homo sapiens, UniProt Q15746); conditions: 1 µM; binder
[21] = biological target: LYN (Homo sapiens, UniProt P07948); conditions: 1 µM; binder
[22] = biological target: ERK1 (Homo sapiens, UniProt P27361); conditions: 1 µM; binder
[23] = biological target: SgK110 (Homo sapiens, UniProt P0C264); conditions: 1 µM; binder
[24] = biological target: SNARK (Homo sapiens, UniProt Q9H093); conditions: 1 µM; binder
[25] = biological target: AMPK-alpha1 (Homo sapiens, UniProt Q13131); conditions: 1 µM; binder
[26] = biological target: ABL1-phosphorylated (Homo sapiens, UniProt P00519); conditions: 1 µM; binder
[27] = biological target: MKNK2 (Homo sapiens, UniProt Q9HBH9); conditions: 1 µM; binder
[28] = biological target: MAP3K15 (Homo sapiens, UniProt Q6ZN16); conditions: 1 µM; binder
[29] = biological target: ERBB3 (Homo sapiens, UniProt P21860); conditions: 1 µM; binder
[30] = biological target: PRKX (Homo sapiens, UniProt P51817); conditions: 1 µM; binder

Sequence of HCK (P08631 whole entry): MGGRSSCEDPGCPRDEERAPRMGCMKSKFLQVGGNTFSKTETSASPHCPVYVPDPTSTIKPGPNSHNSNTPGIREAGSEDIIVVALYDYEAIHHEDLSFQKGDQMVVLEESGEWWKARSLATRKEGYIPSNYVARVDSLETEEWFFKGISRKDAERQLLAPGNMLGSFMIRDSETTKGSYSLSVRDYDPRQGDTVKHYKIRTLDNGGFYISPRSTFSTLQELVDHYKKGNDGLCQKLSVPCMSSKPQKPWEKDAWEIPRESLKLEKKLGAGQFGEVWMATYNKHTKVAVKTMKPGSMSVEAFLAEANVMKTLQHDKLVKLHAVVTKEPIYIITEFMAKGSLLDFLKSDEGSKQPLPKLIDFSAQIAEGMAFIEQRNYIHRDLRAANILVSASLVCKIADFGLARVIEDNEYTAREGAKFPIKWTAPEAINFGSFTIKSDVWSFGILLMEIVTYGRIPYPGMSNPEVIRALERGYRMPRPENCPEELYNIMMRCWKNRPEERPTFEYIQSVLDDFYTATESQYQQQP
Sequence of MRCKA (Q5VT25 whole entry): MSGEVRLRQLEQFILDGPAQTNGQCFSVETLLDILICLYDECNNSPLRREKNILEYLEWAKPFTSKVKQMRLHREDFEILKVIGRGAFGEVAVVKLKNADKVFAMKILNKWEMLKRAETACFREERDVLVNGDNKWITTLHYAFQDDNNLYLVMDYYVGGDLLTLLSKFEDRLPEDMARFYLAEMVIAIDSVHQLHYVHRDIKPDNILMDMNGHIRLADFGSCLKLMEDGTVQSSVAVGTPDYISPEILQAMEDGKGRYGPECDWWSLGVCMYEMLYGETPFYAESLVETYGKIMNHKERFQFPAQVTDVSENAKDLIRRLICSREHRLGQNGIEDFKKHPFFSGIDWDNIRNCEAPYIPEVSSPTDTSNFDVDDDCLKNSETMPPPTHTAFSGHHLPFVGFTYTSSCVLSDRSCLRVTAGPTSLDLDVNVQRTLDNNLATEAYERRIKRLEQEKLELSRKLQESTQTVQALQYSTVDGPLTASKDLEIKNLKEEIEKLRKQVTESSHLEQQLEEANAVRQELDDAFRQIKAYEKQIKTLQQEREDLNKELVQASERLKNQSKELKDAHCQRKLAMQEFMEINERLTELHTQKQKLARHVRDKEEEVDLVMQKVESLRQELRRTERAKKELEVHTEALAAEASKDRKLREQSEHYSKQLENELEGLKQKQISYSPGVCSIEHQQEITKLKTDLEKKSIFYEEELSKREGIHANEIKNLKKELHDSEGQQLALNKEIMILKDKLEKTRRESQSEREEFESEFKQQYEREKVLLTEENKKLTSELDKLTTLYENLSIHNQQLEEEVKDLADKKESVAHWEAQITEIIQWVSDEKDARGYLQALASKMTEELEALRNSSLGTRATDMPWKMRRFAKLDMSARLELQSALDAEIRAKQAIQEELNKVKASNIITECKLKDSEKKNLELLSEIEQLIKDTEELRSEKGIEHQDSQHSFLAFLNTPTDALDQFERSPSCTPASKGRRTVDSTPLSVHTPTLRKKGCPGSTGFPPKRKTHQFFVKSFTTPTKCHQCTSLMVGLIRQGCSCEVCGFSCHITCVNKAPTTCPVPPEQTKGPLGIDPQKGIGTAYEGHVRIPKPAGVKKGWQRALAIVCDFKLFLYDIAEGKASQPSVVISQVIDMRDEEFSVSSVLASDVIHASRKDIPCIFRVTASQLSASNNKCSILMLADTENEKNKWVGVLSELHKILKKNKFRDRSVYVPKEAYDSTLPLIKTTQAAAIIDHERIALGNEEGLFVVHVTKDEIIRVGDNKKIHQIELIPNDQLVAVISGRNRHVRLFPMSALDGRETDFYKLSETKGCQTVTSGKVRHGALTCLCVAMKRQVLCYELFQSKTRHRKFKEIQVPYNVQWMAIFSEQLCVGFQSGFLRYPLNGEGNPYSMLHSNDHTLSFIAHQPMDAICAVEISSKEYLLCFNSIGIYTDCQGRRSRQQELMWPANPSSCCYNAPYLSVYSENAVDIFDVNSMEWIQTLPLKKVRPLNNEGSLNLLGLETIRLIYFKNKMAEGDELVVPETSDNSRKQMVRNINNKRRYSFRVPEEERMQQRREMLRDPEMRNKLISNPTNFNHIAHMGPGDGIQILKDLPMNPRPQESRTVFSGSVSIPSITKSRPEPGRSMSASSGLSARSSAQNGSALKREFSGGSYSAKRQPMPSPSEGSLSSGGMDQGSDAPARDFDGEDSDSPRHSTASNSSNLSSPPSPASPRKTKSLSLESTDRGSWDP
Sequence of ERK1 (P27361 whole entry): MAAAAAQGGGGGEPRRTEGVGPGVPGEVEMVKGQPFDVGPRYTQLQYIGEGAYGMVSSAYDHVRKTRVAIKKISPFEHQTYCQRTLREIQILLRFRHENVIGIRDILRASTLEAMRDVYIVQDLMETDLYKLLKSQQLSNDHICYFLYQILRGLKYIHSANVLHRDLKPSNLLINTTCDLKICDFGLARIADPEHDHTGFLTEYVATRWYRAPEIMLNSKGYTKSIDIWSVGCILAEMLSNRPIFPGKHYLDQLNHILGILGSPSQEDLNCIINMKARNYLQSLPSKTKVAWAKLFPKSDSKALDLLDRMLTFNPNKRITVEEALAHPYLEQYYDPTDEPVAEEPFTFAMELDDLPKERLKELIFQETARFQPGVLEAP
Sequence of LYN (P07948 whole entry): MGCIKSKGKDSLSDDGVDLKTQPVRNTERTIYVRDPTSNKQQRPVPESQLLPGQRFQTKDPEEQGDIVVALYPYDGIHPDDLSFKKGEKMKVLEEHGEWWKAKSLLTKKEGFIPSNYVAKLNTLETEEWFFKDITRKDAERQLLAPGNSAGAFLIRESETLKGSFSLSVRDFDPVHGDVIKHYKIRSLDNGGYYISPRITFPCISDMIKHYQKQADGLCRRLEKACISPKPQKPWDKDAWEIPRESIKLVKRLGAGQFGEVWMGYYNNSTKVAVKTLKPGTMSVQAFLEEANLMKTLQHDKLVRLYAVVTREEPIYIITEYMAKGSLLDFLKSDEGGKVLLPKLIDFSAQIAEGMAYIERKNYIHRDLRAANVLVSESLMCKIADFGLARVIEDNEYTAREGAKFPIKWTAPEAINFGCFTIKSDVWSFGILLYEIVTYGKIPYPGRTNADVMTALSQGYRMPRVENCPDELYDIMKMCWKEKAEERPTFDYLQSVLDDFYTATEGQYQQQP
Sequence of DAPK2 (Q9UIK4 whole entry): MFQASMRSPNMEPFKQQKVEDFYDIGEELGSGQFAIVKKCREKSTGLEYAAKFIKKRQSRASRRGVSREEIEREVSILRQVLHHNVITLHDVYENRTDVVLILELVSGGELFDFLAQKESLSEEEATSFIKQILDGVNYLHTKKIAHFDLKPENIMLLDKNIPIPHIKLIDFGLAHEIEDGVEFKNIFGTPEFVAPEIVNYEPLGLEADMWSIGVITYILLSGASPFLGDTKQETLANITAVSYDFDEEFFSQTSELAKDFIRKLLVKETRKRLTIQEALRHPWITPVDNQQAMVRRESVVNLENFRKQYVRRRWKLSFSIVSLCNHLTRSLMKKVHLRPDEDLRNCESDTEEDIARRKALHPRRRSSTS
Sequence of DMPK (Q09013 whole entry): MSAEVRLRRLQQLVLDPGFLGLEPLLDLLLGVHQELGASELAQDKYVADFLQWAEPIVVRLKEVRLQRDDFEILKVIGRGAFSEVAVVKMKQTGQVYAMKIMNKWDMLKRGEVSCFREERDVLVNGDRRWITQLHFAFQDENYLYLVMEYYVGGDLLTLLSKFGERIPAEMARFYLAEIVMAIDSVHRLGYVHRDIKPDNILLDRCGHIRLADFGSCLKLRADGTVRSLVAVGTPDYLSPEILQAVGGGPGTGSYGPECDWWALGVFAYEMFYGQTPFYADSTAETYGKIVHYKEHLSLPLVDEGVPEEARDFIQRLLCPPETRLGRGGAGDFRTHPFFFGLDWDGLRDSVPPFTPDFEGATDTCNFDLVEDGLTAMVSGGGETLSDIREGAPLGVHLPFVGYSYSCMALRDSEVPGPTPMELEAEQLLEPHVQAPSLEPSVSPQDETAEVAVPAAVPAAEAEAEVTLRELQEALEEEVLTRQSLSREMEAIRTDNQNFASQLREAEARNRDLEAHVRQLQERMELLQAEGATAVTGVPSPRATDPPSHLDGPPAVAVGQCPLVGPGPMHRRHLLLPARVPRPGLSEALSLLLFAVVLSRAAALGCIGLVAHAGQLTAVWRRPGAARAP
Sequence of OSR1 (O95747 whole entry): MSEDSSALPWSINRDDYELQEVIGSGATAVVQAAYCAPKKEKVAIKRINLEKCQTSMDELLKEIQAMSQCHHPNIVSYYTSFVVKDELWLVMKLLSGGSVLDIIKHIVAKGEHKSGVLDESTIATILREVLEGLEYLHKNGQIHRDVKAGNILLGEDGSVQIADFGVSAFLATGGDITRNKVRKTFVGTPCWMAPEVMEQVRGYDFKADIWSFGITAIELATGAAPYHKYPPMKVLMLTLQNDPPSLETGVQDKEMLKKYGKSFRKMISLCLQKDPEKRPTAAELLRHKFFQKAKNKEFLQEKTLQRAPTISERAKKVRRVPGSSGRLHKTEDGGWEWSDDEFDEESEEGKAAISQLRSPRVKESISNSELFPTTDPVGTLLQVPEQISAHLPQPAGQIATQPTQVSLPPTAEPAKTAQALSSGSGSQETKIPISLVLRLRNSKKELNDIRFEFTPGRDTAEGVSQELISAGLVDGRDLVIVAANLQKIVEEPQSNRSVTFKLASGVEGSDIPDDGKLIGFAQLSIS
Sequence of CSNK2A2 (P19784 whole entry): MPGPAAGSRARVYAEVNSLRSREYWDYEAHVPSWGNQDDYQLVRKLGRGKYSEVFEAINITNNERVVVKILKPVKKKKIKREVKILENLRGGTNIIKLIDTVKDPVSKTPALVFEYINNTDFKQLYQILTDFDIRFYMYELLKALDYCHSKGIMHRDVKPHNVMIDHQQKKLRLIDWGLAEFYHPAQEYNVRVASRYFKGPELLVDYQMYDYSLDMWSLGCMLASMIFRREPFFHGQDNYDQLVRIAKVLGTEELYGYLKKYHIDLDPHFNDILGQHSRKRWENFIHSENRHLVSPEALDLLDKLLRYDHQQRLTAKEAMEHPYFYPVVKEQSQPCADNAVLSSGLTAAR

SMILES: CNc1ncc2cc(-c3ccc(-c4cccc(C)n4)cc3Cl)c(=O)n(C[C@H]3OC[C@H](N)CO3)c2n1 [compound 6, G-5555]
- Percent Control [1]: 48%
- Percent Control [2]: 95%
- Percent Control [3]: 81%
- Percent Control [4]: 100%
- Percent Control [5]: 100%
- Percent Control [6]: 100%
- Percent Control [7]: 100%
- Percent Control [8]: 100%
- Percent Control [9]: 100%
- Percent Control [10]: 92%
- Percent Control [11]: 100%
- Percent Control [12]: 100%
- Percent Control [13]: 47%
- Percent Control [14]: 100%
- Percent Control [15]: 70%
- Percent Control [16]: 100%
- Percent Control [17]: 100%
- Percent Control [18]: 100%
- Percent Control [19]: 43%
- Percent Control [20]: 85%
- Percent Control [21]: 74%
- Percent Control [22]: 74%
- Percent Control [23]: 71%
- Percent Control [24]: 2%
- Percent Control [25]: 40%
- Percent Control [26]: 95%
- Percent Control [27]: 97%
- Percent Control [28]: 48%
- Percent Control [29]: 86%
- Percent Control [30]: 100%
